Ends that are not written are not given here.
Key:
[1] = Single-dose viability screen on adherently growing (2D) NCI-H441 cells (CellTiter Blue); type: cell-based, human; conditions: 25 μM single dose, adherent NCI-H441, compared to vehicle (30 mM Urea); read-out: decrease in viability after 4 days of exposure
Procedure: For the single-dose viability screen on adherent cells, 4000 cells were seeded per well in black μclear® Cellstar® F-bottom 96-well plates (Greiner) in 100 μL full growth medium. The day after seeding, growth medium was replaced with full growth medium containing the indicated pept-in at a fixed final dose of 25 μM. Technical duplicates were included for all experimental pept-in conditions. 2 and 4 days after treatment viability was assessed using the CellTiter Blue reagent (Promega) according to the manufacturer's instructions, with the following adaptation: CellTiter Blue reagent was diluted 1 in 2 in PBS. Readout was performed on a Clariostar plate reader (BMG). Dose-response assays were performed with the following adaptations: pept-ins were tested in dose-response using a 1 in 2 dilution series with 50 μM being the highest final concentration used. Furthermore, a single viability read-out was performed 3 days after treatment using the Celltiter Glo reagent (Promega) according to the manufacturer's instructions, with the following adaptation: CellTiter Glo reagent was diluted 1 in 4 in PBS.
To assess pept-in activity on the viability of RAS-mutant tumor cells, we used adherent NCI-H441 lung adenocarcinoma cells which harbor a G12V mutation in KRAS. To verify that this cell line was indeed dependent on KRAS for its growth, we used SAH-SOS-1A as a positive control. SAH-SOS-1A is a peptidic compound whose design is based on a stabilized helix from son of sevenless 1, the canonical guanine exchange factor for KRAS (Leshchiner et al. Proc Natl Acad Sci U S A. 2015, vol. 112(6), 1761-6).
Pept-ins were screened at a single dose of 25 μM (corresponds to final concentration of 30 mM Urea) and viability was measured after 2 and 4 days of exposure using the CellTiter Blue reagent. […] Hit rates and potencies for the other templates tested were considerably lower. […] One of these pept-ins (04-004-N001) harbours an APR window sequence derived from another APR of RAS, that is thus present in both G12 mutant and wild-type RAS, while the other four pept-ins (04-006-N001, 04-014-N001, 04-015-N001 and 04-033-N001) harbour an APR window sequence that is derived from and contains a G12V mutant site.

SW620 tumor = experiment: In vivo SW620 xenograft model of human KRAS G12V colorectal cancer; parameters: species or system mouse; conditions: for average tumor volume at day 22, 20 μg dosing group / average tumor volume at day 22, 200 μg dosing group: intratumoral injection three times per week
Procedure: Female NCr nu/nu mice (8 to 12 weeks) were inoculated with 1×10^6 SW620 tumor cells in 50% Matrigel subcutaneously in the hind flank. The cell Injection Volume was 0.1 mL/mouse. When tumors reached an average size of 100-150 mm^3 a pair match was performed, and treatment started. Group sizes were N=6 for the non-treated group, N=5 for the vehicle groups and N=8 for the pept-in and positive control groups. Tumor growth was monitored by caliper measurement twice per week. Model response was monitored by Irinotecan dosed once per week at 100 mg/kg intraperitoneally for 3 weeks.
To assess whether the RAS-targeting pept-ins are able to attenuate growth of KRAS G12V-driven tumors in vivo, a subcutaneous xenograft model of human KRAS G12V colorectal cancer (SW620) was used. Once the tumors reached 100-150mm^3 in size, pept-ins were administered directly into the tumor mass by intratumoral injection three times per week during two weeks at two different doses (20 μg and 200μg).

[2] = test system: RASless MEFs expressing KRAS G12V; experiment: Spheroid efficacy on RASless MEF panel; type: cell-based, mouse; conditions: spheroids, 5 days of exposure
Procedure: (§1) For the single-dose viability screen on spheroid cultures, 1000 cells were seeded per well in black Ultra-Low Attachment (ULA) round-bottom 96-well plates (Corning) in 75 μL full growth medium. The day after seeding, spheroids were treated by addition of 50 µl of full growth medium containing the indicated test compounds so that the final concentration after adding was 25 μM. Technical duplicates were included for all experimental pept-in conditions 5 days after treatment viability was assessed using the CellTiter Glo 3D reagent (Promega) according to the manufacturer's instructions, with the following adaptation: 80 μL of reagent was added per well. Readout was performed on a Clariostar plate reader (BMG). For dose-response assays using RASless MEFs, cells were seeded at 1000 (G12V and G12C) or 2000 (wild-type and BRAF V600E) in Matrigel-containing medium, in order to obtain equally viable spheroids at start of treatment, 24 hrs later. […]
RAS mutant-selectivity on cellular efficacy was assessed using the isogenic RASless mouse embryonic fibroblast (MEF) panel. […] The panel assessed included the common clinical KRAS variants expressed as transgene (WT, G12V and G12C) and an additional cell line dependent on the expression of BRAF V600E for proliferation.
Efficacy of RAS-targeting pept-ins on MEFs growing as spheroids was assessed after 5 days of exposure. […]

G12V mutant KRAS = biological target: T1, G12V mutant KRAS (Homo sapiens, UniProt P01116, G12V); experiment: In vitro translation assay with streptavidin pull-down of biotinylated pept-ins, Western blot for KRAS; type: binding; conditions: 10 μM biotinylated pept-in
T1 construct: made in house; host or cells: cell-free: PURExpress In Vitro Protein Synthesis Kit (New England Biolabs), linear T7 PCR template
Procedure: (§2) In vitro translation assays were performed using the PURExpress® In Vitro Protein Synthesis Kit (New England Biolabs) according to the manufacturer's instructions. Briefly, linear DNA fragments containing T7 promotor and terminator sequences flanking the KRAS coding sequence were generated using PCR and purified using the MinElute PCR Purification Kit (Qiagen). 250 ng of linear DNA was subsequently used for the in vitro translation reaction, which was performed for 2 hours at 37° C. with shaking (1000 rpm). Indicated biotinylated pept-ins were mixed in the translation reactions from a 5 mM stock solution in 6M Urea to a final concentration of 10 μM. Upon completion of the translation reaction, biotinylated pept-ins were captured from the reaction mix using Streptavidin coated beads (Pierce) during 90 min at room temperature. Beads were next washed with TBS containing 0.1% Tween 20 and bound proteins were finally boiled off in 1×SDS loading dye (Bio-Rad) in TBS buffer. Proteins were resolved using Any kD 15-well Mini-PROTEAN gels (Bio-Rad) during SDS-PAGE and probed for KRAS after Western blotting using a mouse monoclonal KRAS-specific antibody (SC-30, Santa Cruz Biotechnology), which was detected with an HRP-coupled anti-mouse secondary antibody using chemiluminescence on a Bio-Rad Chemidoc MP imaging instrument.
(§3) To mimic this in vitro, we devised an in vitro translation setup producing either wild-type or mutant (G12V, G12C, G12D or G13D) KRAS in the presence of biotinylated RAS-targeting pept-ins. This allowed us to perform a streptavidin pull-down to capture the biotinylated pept-ins from the translation reaction and perform SDS-PAGE and Western blotting to probe the pulled-down fraction for the presence of KRAS. The biotinylated version of pept-in 04-004-N001, i.e. 04-004-N011, which harbours an APR window sequence derived from a wild-type APR, is predicted to target all RAS proteins independently from their mutation status.

G12C mutant KRAS = biological target: T2, G12C mutant KRAS (Homo sapiens, UniProt P01116, G12C); experiment: as above; type: binding; conditions: 10 μM biotinylated pept-in
T2 construct: made in house; host or cells: cell-free: PURExpress In Vitro Protein Synthesis Kit (New England Biolabs), linear T7 PCR template
Procedure: as §2, §3

[3] = test system: NCI-H441 cells growing as suspension spheroid cultures; experiment: Single-dose viability screen on NCI-H441 suspension spheroid cultures (3D, CellTiter Glo 3D); type: cell-based, human; conditions: 25 μM single dose, 5 days
Procedure: as §1, with “(BMG).” for “(BMG). For dose-response assays using RASless MEFs, cells were seeded at 1000 (G12V and G12C) or 2000 (wild-type and BRAF V600E) in Matrigel-containing medium, in order to obtain equally viable spheroids at start of treatment, 24 hrs later.”
As previous reports have shown that adherent growth of KRAS mutant cells lines might attenuate their sensitivity to KRAS inhibition or knockdown (Fujita-Sato et al. Cancer Res. 2015, vol. 75, 2851-62; Patricelli et al. Cancer Discov. 2016, vol. 6, 316-29; Vartanian et al. J Biol Chem. 2013, vol. 288, 2403-13), we complemented the screen on adherently growing NCI-H441 cells with a screen on suspension spheroid cultures of the same cell line. […] Viability of the spheroid cultures was determined after 5 days of exposure using the CellTiter Glo 3D reagent from Promega. […]

Ac-KVVVGAVKGSKVVVGAVK-NH2 [04-006-N001]
cytotoxicity [1]: ≥ 75%

CC(=O)N[C@@H](CCCCN)C(=O)N[C@H](C(=O)N[C@H](C(=O)N[C@H](C(=O)NCC(=O)N[C@@H](C)C(=O)N[C@H](C(=O)NCC(=O)N[C@@H](CCCCN)C(=O)NCC(=O)N[C@@H](CO)C(=O)N[C@@H](CCCCN)C(=O)N[C@H](C(=O)N[C@H](C(=O)N[C@H](C(=O)NCC(=O)N[C@@H](C)C(=O)N[C@H](C(=O)NCC(=O)N[C@@H](CCCCN)C(N)=O)C(C)C)C(C)C)C(C)C)C(C)C)C(C)C)C(C)C)C(C)C)C(C)C [04-015-N001]
cytotoxicity [1]: ≥ 75% | average tumor volume at day 22, 20 μg dosing group (SW620 tumor): significant reduction in average tumor volume | average tumor volume at day 22, 200 μg dosing group (SW620 tumor): significant reduction in average tumor volume | reduction in tumor growth (comparison between pept-ins) (SW620 tumor; intratumoral injection, 20 μg and 200 μg): strongest reduction in tumor growth

Ac-KLSVFAIKGSKLSVFAIK-NH2 [04-004-N001]
cytotoxicity [1]: ≥ 75% | efficacy on MEFs expressing KRAS G12V [2]: notable increased efficacy | average tumor volume at day 22, 20 μg dosing group (SW620 tumor): only significant for the 200 μg dosing group | average tumor volume at day 22, 200 μg dosing group (SW620 tumor): significant

Ac-KVVVGAVGVGKGSKVVVGAVGVGK-NH2 [04-033-N001]
cytotoxicity [1]: ≥ 75%

04-033-N003: biotinylated version of a biologically active pept-in harbouring an APR window containing the G12V mutant site (KVVVGAVGVGKGSKVVVGAVGVGK; also: biotinylated, site not given here)
pull-down of G12V mutant KRAS (G12V mutant KRAS): notable pull-down was only observed for the G12V mutant KRAS

04-015-N026: biotinylated version of a biologically active pept-in harbouring an APR window containing the G12V mutant site (KVVVGAVGKGSKVVVGAVGK; also: biotinylated, site not given here)
pull-down of G12V mutant KRAS (G12V mutant KRAS): notable pull-down | pull-down of G12C mutant KRAS (G12C mutant KRAS): notable pull-down

04-006-N007: biotinylated version of a biologically active pept-in harbouring an APR window containing the G12V mutant site (KVVVGAVKGSKVVVGAVK; also: biotinylated, site not given here)
pull-down of G12V mutant KRAS (G12V mutant KRAS): notable pull-down was only observed for the G12V mutant KRAS

Ac-KLVVVGAVKGSKLVVVGAVK-NH2 [04-014-N001]
cytotoxicity [1]: ≥ 75% | activity in the spheroid setting [3]: did not display activity

Source: US20230100941A1, “MOLECULES TARGETING MUTANT RAS PROTEIN” (AELIN THERAPEUTICS, priority 2020, published 2023)
